System: pepper plants
Assay: Iron assimilation and development of pepper plants cultivated in hydroponia
Format: in vivo
Method: Four different treatments are presented that are applied to peppers: • 1. The control received a nutritive solution containing different nutrients. • 2. The treatment AIA that received the same nutritive control solution was also treated with indol-acetic acid (natural auxin) at a dose of 10^−6 M. • 3. […] The treatment IND2 that received the same nutritive control solution was also treated with the composition of Example 1 at a dose of 10^−9 M. The pepper plants were cultivated in hydroponia.

[1] = dose 10^−6 M in nutritive solution

O=C(O)Cc1c[nH]c2ccccc12 [AIA, indol-acetic acid]
Assimilated Fe, leaves [1]: 0.335 mg plant^−1 | Assimilated Fe, root [1]: 2.90 mg plant^−1 | Dry matter, leaves [1]: 4.04 g plant^−1 | Dry matter, root [1]: 1.43 g plant^−1 | Dry matter, stem [1]: 1.09 g plant^−1 | Assimilated Fe, leaves (% of control) (dose 10^−6 M, control = 100): 103.4% | Assimilated Fe, root (% of control) (dose 10^−6 M, control = 100): 109.8% | Dry matter, leaves (% of control) (dose 10^−6 M, control = 100): 136% | Dry matter, root (% of control) (dose 10^−6 M, control = 100): 130% | Dry matter, stem (% of control) (dose 10^−6 M, control = 100): 138% | assimilation and translocation of iron (in words) (versus control): no significant effects | biostimulant effect (in words) (versus control): presents a biostimulant effect

— patent publication US20060234866A1, “Formulations with the capacity to increase the efficiency of plants to assimilate different mineral nutrients, especially iron, in normal conditions and in conditions of deficiency of potentially assimilable iron” (Inabonos, S.A., a Spanish joint venture company, priority 2005, published 2006)
